Source: ChEMBL document CHEMBL1201862, “PubChem BioAssay data set” (2004)
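Dose response: 5 concentrations. Exposure: 48 h. Format: 96-well plates. Endpoint: linear interpolation; highest concentration if not reached. At the GI50, growth is halved.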 Active and inactive are the calls of the source. Rule as the data show it: active = GI50 up to about 1.1 µM and inactive = higher.

Experiments:
Test in all cases: growth of human tumour cells (NCI), 48 h
HT-29 = tested on: HT-29
HOP-62 = tested on: HOP-62
NCI-H226 = tested on: NCI-H226
DMS-114 = tested on: DMS-114
SK-OV-3 = tested on: SK-OV-3
HL-60 = tested on: HL-60
A549 = tested on: A549
K562 = tested on: K562
SW-620 = tested on: SW-620
ACHN = tested on: ACHN
CCRF-CEM = tested on: CCRF-CEM
SK-MEL-2 = tested on: SK-MEL-2
UACC-62 = tested on: UACC-62
M14 = tested on: M14
LOX IMVI = tested on: LOX IMVI
OVCAR-5 = tested on: OVCAR-5

Measured: GI50

CC1=CC(=O)N2[C@H](OC[C@@H]2C(C)C)O1
inactive: HT-29 > 100 µM | HOP-62 > 100 µM | NCI-H226 > 100 µM | DMS-114 > 100 µM | SK-OV-3 > 100 µM | HL-60 > 100 µM | A549 > 100 µM | K562 > 100 µM | SW-620 > 100 µM | ACHN > 100 µM | CCRF-CEM > 100 µM | SK-MEL-2 > 100 µM | UACC-62 > 100 µM | M14 > 100 µM

Nc1cc(-c2ccccc2)nn1-c1nsc2ccccc12
inactive: HT-29 91.2 µM | HOP-62 36.3 µM | LOX IMVI 97.5 µM | OVCAR-5 > 100 µM | DMS-114 > 100 µM | HL-60 61.8 µM | A549 > 100 µM | K562 40.4 µM | SW-620 > 100 µM | ACHN > 100 µM | CCRF-CEM 21.6 µM | SK-MEL-2 > 100 µM | UACC-62 > 100 µM | M14 > 100 µM

Cc1ccc(N2C(=O)/C(=C/c3ccc(N(CCC#N)CCC#N)cc3)N=C2COc2ccc(Cl)cc2Cl)cc1
inactive: HT-29 > 100 µM | HOP-62 > 100 µM | NCI-H226 > 100 µM | LOX IMVI > 100 µM | OVCAR-5 > 100 µM | DMS-114 > 100 µM | SK-OV-3 > 100 µM | HL-60 > 100 µM | A549 > 100 µM | K562 > 100 µM | SW-620 > 100 µM | ACHN > 100 µM | CCRF-CEM > 100 µM | SK-MEL-2 > 100 µM | UACC-62 > 100 µM | M14 > 100 µM

COc1ccc(Oc2ccccc2N)cc1
inactive: HT-29 39.9 µM | HOP-62 35.2 µM | NCI-H226 41.9 µM | LOX IMVI 81.1 µM | OVCAR-5 48.6 µM | DMS-114 37.2 µM | SK-OV-3 > 100 µM | HL-60 21 µM | A549 38.1 µM | K562 29.5 µM | SW-620 59 µM | ACHN 24.5 µM | CCRF-CEM 10.7 µM | SK-MEL-2 57 µM | UACC-62 19.3 µM | M14 58.7 µM

c1ccc(OCc2nnc3n2N=C(c2ccccc2)CS3)cc1
inactive: HT-29 > 100 µM | HOP-62 > 100 µM | NCI-H226 > 100 µM | LOX IMVI > 100 µM | OVCAR-5 > 100 µM | DMS-114 > 100 µM | SK-OV-3 > 100 µM | HL-60 > 100 µM | A549 > 100 µM | K562 > 100 µM | SW-620 > 100 µM | ACHN > 100 µM | CCRF-CEM > 100 µM | SK-MEL-2 75.3 µM | UACC-62 > 100 µM | M14 > 100 µM

O=C1OC(c2ccccc2)=N/C1=C\c1c(O)cc(O)cc1O
inactive: HT-29 > 100 µM | LOX IMVI 78.3 µM | OVCAR-5 > 100 µM | DMS-114 > 100 µM | SK-OV-3 > 100 µM | A549 > 100 µM | K562 32.4 µM | SW-620 > 100 µM | ACHN 53.2 µM | CCRF-CEM > 100 µM | SK-MEL-2 > 100 µM | UACC-62 27.9 µM | M14 60.3 µM

Cc1c(C2Cc3ccccc3N2C(=O)/C=C\C(=O)O)c2ccccc2n1C (stereo not given)
inactive: HT-29 35.3 µM | HOP-62 27.6 µM | NCI-H226 20.2 µM | LOX IMVI 16.9 µM | OVCAR-5 48.4 µM | DMS-114 18.7 µM | SK-OV-3 23.4 µM | HL-60 18.1 µM | A549 33 µM | K562 36.4 µM | SW-620 20 µM | ACHN 38.6 µM | CCRF-CEM 30.8 µM | SK-MEL-2 17.7 µM | UACC-62 16.9 µM | M14 17.8 µM

N#CC1(C#N)C(c2ccc(C3C(C#N)(C#N)C3(C#N)C#N)cc2)C1(C#N)C#N
inactive: HT-29 > 100 µM | HOP-62 > 100 µM | LOX IMVI > 100 µM | OVCAR-5 > 100 µM | DMS-114 > 100 µM | SK-OV-3 > 100 µM | HL-60 > 100 µM | A549 > 100 µM | K562 > 100 µM | SW-620 > 100 µM | ACHN > 100 µM | CCRF-CEM > 100 µM | SK-MEL-2 > 100 µM | UACC-62 > 100 µM | M14 > 100 µM

O=C(Nc1cc(Cl)ccc1Cl)C(=O)C(c1cnc2ccccc2n1)[N+](=O)[O-] (stereo not given)
inactive: HT-29 > 100 µM | HOP-62 > 100 µM | NCI-H226 > 100 µM | LOX IMVI > 100 µM | OVCAR-5 > 100 µM | DMS-114 > 100 µM | SK-OV-3 > 100 µM | HL-60 > 100 µM | A549 > 100 µM | K562 > 100 µM | SW-620 > 100 µM | ACHN > 100 µM | CCRF-CEM > 100 µM | UACC-62 > 100 µM | M14 > 100 µM

Oc1cc(Cl)ncn1
inactive: HT-29 > 100 µM | HOP-62 > 100 µM | NCI-H226 > 100 µM | LOX IMVI > 100 µM | OVCAR-5 > 100 µM | DMS-114 > 100 µM | SK-OV-3 > 100 µM | HL-60 > 100 µM | A549 > 100 µM | K562 > 100 µM | SW-620 > 100 µM | ACHN > 100 µM | CCRF-CEM > 100 µM | SK-MEL-2 > 100 µM | UACC-62 > 100 µM | M14 > 100 µM

CC1(C)Cc2c(C#N)c(N)c3c(c2CO1)C(=O)OC3=O
inactive: HT-29 > 100 µM | HOP-62 > 100 µM | NCI-H226 > 100 µM | LOX IMVI > 100 µM | OVCAR-5 > 100 µM | DMS-114 > 100 µM | SK-OV-3 > 100 µM | HL-60 > 100 µM | A549 > 100 µM | K562 > 100 µM | SW-620 > 100 µM | ACHN > 100 µM | CCRF-CEM > 100 µM | SK-MEL-2 > 100 µM | UACC-62 > 100 µM | M14 > 100 µM

CC(C)(c1ccc(OC#N)cc1)c1ccc(OC#N)cc1
inactive: HT-29 > 100 µM | HOP-62 > 100 µM | NCI-H226 > 100 µM | LOX IMVI > 48.4 µM | OVCAR-5 > 100 µM | DMS-114 > 41.5 µM | SK-OV-3 > 100 µM | HL-60 > 55 µM | A549 > 100 µM | K562 > 70 µM | SW-620 > 100 µM | ACHN > 100 µM | CCRF-CEM > 55.7 µM | SK-MEL-2 > 100 µM | UACC-62 > 100 µM | M14 > 100 µM

O=[N+]([O-])c1ccc2nc(/C(=N\Nc3ccccc3)C(O)c3ccc4c(c3)OCO4)c(O)nc2c1 (stereo not given)
inactive: HT-29 97.1 µM | HOP-62 > 100 µM | NCI-H226 > 100 µM | LOX IMVI > 100 µM | DMS-114 37.4 µM | SK-OV-3 > 100 µM | HL-60 52.1 µM | A549 > 100 µM | K562 36.4 µM | SW-620 56.1 µM | ACHN 30.7 µM | CCRF-CEM > 100 µM | SK-MEL-2 > 100 µM | UACC-62 34 µM | M14 > 100 µM

c1ccc(C2=NOC3(c4ccccc4)SC4CCCCC4CN23)cc1 (stereo not given)
inactive: HT-29 28.2 µM | HOP-62 38.7 µM | NCI-H226 36.6 µM | LOX IMVI 17 µM | OVCAR-5 > 100 µM | DMS-114 15.6 µM | SK-OV-3 77.4 µM | HL-60 5.4 µM | A549 20.5 µM | K562 20.2 µM | SW-620 30.6 µM | ACHN 26.2 µM | CCRF-CEM 6.38 µM | SK-MEL-2 31.3 µM | UACC-62 25 µM | M14 21.9 µM

O=C1CCC(=O)C(C(=O)CCC(=O)Nc2ccc(Cl)cc2)C1 (stereo not given)
inactive: HT-29 > 100 µM | NCI-H226 > 100 µM | LOX IMVI > 100 µM | OVCAR-5 > 100 µM | DMS-114 > 100 µM | SK-OV-3 > 100 µM | HL-60 > 100 µM | A549 > 100 µM | K562 > 100 µM | SW-620 > 100 µM | ACHN > 100 µM | CCRF-CEM > 100 µM | SK-MEL-2 > 100 µM | UACC-62 > 100 µM | M14 > 100 µM

CC(C)CCS(=O)(=O)OCCCCOS(=O)(=O)CCC(C)C
inactive: HT-29 > 100 µM | HOP-62 13.9 µM | NCI-H226 > 100 µM | LOX IMVI > 100 µM | DMS-114 > 100 µM | SK-OV-3 > 100 µM | HL-60 > 100 µM | A549 > 100 µM | K562 > 100 µM | SW-620 > 100 µM | ACHN > 100 µM | CCRF-CEM > 100 µM | UACC-62 > 100 µM | M14 16.1 µM

CCOC(=O)c1cnc2sc3ccc4ccccc4c3n2c1=O
inactive: HT-29 87.5 µM | HOP-62 > 100 µM | NCI-H226 30.1 µM | LOX IMVI 47.9 µM | OVCAR-5 > 100 µM | DMS-114 71.6 µM | SK-OV-3 78.5 µM | HL-60 21.2 µM | A549 53.3 µM | K562 37.6 µM | SW-620 > 100 µM | ACHN 33.1 µM | CCRF-CEM 25.1 µM | SK-MEL-2 41.5 µM | UACC-62 77.6 µM | M14 81.1 µM

Cc1c(C(=O)CC(=O)C(=O)NC2C3CC4CC(C3)CC2C4)[n+]([O-])c2ccccc2[n+]1[O-] (stereo not given)
inactive: HT-29 > 100 µM | HOP-62 > 100 µM | NCI-H226 > 100 µM | LOX IMVI > 100 µM | OVCAR-5 > 100 µM | DMS-114 > 100 µM | SK-OV-3 > 100 µM | HL-60 > 100 µM | A549 > 100 µM | K562 > 100 µM | SW-620 > 100 µM | ACHN > 100 µM | CCRF-CEM 90.6 µM | SK-MEL-2 > 100 µM | UACC-62 > 100 µM | M14 > 100 µM
